Source: PMC9181014, “De Novo Development of Mitochondria-Targeted Molecular Probes Targeting Pink1” (International Journal of Molecular Sciences, 2022)
Numbered stars: 1 amine (or outer) side, 2 acyl side, 3 side chain; on linkers, the order of the positions; unused ones are H or OH. Bridge positions count the residues as written; N and C are the ends. Ends that are not written are not given here. Peptide text beside a SMILES is read from it. Suc = O=C(CCC(=O)[*:2])[*:1]

T1: Tribolium castaneum Pink1 (TcPink1) (Tribolium castaneum, UniProt D6WMX4 6-570)
T1 construct: No cleavage of MBP is described; also called pMal4c Pink1 (Tribolium castaneum) DU34701; not shown: MBP (from the vector pMal4c)
T1 sequence (looked up): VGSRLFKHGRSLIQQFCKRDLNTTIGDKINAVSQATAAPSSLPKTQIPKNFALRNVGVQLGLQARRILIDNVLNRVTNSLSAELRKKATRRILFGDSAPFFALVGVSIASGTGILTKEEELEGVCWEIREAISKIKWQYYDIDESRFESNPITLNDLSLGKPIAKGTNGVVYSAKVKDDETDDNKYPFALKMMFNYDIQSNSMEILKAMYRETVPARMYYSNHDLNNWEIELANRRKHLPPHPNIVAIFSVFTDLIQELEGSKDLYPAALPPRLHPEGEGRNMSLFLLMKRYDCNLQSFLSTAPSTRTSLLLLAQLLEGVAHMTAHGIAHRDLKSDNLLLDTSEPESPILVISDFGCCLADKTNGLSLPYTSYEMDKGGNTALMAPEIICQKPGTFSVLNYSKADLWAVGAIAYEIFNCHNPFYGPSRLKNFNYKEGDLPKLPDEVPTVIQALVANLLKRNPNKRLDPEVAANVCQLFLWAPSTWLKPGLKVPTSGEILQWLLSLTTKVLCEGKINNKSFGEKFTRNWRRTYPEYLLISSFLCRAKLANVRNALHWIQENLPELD


Columns and labels:
[1] = target: T2, TcPink1 (Tribolium castaneum, UniProt D6WMX4); test: Peptide binding to immobilized protein in vitro, field-effect biosensing (FEB); conditions: AGILE Dev Kit graphene biosensor chip, protein 500 nM immobilized by EDC/sulfo-NHS, analyte 50 µL in PBS pH 7.4, Hill fit, mean ± SEM, read-out: KD of the peptides binding to TcPink1
T2 construct: host or cells: E. coli Rosetta (DE3)
Experimental: In brief: Protein was immobilized/cross-linked into the carboxyl group present on the activated graphene biosensor chip. The analyte is applied in solution to the chip and when an interaction occurs, an alteration in the current (I) is measured and recorded in real-time throughout the experiment. The entire cycle of the experiment starts with calibration using PBS (pH 7.4) to record the baseline equilibration response. Followed by the association step by adding analyte (50 µL) at the desired concentrations in PBS (pH 7.4). After the experiment, data at the concentration points of the analytes were exported from 3 transistors, averaged, and any background drift recorded in PBS was subtracted.
Binding data of the peptides to immobilized protein in vitro was gathered using an AGILE Dev Kit label-free binding assay (Cardea, San Diego, CA, USA). […] After a rinse in PBS, base-line current levels for the chip were recorded for at least 5 min. Next, the PBS was aspirated, and a droplet of the tested analyte (50 μL) was applied to the chip and the change in the sensor chip readout was recorded, after that the analyte was aspirated and the chip was rinsed with PBS. […] After data were gathered, the responses of the sensors on a single assay chip were averaged, and any background drift recorded in PBS was subtracted. […] The KD values were calculated by GraghPad Prism 9, statistical analysis software. […]

[2] = target: T3, trypsin (Sus scrofa, UniProt P00761); test: Stability of peptides under tryptic degradation, HPLC; assay type: in vitro ADME; conditions: pig, trypsin from porcine pancreas, porcine pancreas trypsin (1 µL of 1 mg/mL), peptide 2 mg in 800 µL 50 mM Tris pH 8.0, 37 °C, RP-HPLC, 214 nm, relative to time zero, n = 3; for metabolised at 0.5 h, 2.5 mg/mL: 30 min, read-out: Degradation of the peptide by trypsin after 30 min
T3 construct: purchased Sigma-Aldrich; host or cells: porcine pancreas
Experimental: (§1) We tested the stability of the peptides using trypsin, an endopeptidase with specificity for cleaving the amide bond between a cationic amino acid and the next amino acid in the C-terminal direction, which is found in the digestive systems of many vertebrates, and it is commonly used as an important enzymatic reagent in biochemistry and biology.
(§2) The stability of the peptides was measured independently under tryptic degradation at 37 °C (by trypsin degradation of the peptide) and was determined by HPLC analysis (for more experimental details, see “Materials and Methods”) (n = 3). The starting time point (0 min, 100%) represents the peptide at the beginning of each experiment. […] Separation was performed by HPLC in the presence of 0.1% trifluoroacetic acid and detected by absorbance at 214 nm. Peptide amounts were calculated relative to the quantities determined at time point zero.
(§3) In brief: The stability studies of the peptides were performed by dissolving the peptides in Tris buffer and incubating them with trypsin solution at 37 °C using HPLC.
(§4) Further details: Trypsin from porcine pancreas was purchased from Sigma-Aldrich (Saint Louis, MO, USA). Peptide (2 mg) was dissolved in Tris buffer (800 µL, 50 mM (pH 8.0)). The peptide solution was mixed with 1 μL of trypsin solution (1 mg/mL in 50 mM Tris buffer (pH 8.0)). The peptide was incubated at 37 °C and samples (90 μL) were taken at 0, 5, 30, 60, and 120 min. The samples were mixed with TFA/CH3CN/H2O (2%/5%/93%, 90 µL). The peptides were analyzed by analytical reverse-phase high-pressure liquid chromatography (RP-HPLC) 1260 Infinity II LC System from Agilent, (Santa Clara, CA, USA) using a Luna 5 μm C18(2) 100 Å (250 × 4.6 mm) column (Phenomenex, Torrance, CA, USA) at 1 mL/min. The solvent systems used were A (H2O with 0.1% TFA) and B (CH3CN with 0.1% TFA). A linear gradient of 5–50% B in 15 min was applied, and the detection was at 214 nm and 254 nm.

[3] = test system: T4, trypsin; test: as above; assay type: in vitro ADME; conditions: pig, trypsin from porcine pancreas; porcine pancreas trypsin (1 µL of 1 mg/mL); peptide 2 mg in 800 µL 50 mM Tris pH 8.0; 37 °C; 120 min; RP-HPLC, 214 nm; relative to time zero; n = 3; read-out: Degradation of the peptide by trypsin after 120 min
T4 construct: purchased Sigma-Aldrich; host or cells: porcine pancreas
Experimental: as §1, §2, §3, §4

[4] = target: T2, TcPink1; test: Cross-linking coupled with mass spectrometry (CLMS), BS3 cross-linker; assay type: binding; conditions: BS3 cross-link CVP198 to CVP198 (residue 11 to residue 11), self cross-link in the CVP198 + tcPINK1 sample
Experimental: (§5) Here, two water-soluble cross-linkers were used for the CLMS: 4-(4,6-dimethoxy-1,3,5-triazin-2-yl)-4-methyl-morpholinium chloride (DMTMM), and bis(sulfosuccinimidyl)suberate (BS3). DMTMM is a hetero-bifunctional amine-to-carboxylic acid crosslinker, and BS3 is a homo-bifunctional amine-to-amine crosslinker, which reacts primarily with the ε-amino group of lysine residues in proteins.
(§6) In brief: The recombinant protein and the peptide were incubated together with a crosslinker. The reaction was stopped with a quencher. The proteins were precipitated collected and trypsinased, the outcome was analysed by liquid chromatography mass spectrometry (LCMS).
(§7) A mixture solution of purified protein and peptide was prepared in HEPES buffer (50 mM HEPES, 150 mM NaCl (pH 8.0)). Protein TcPink1’s final concentration was 10 μM and hPink1’s final concentration was 2 μM. The peptide was added at a 1:10 or 1:100 protein-to-peptide ratio, and the mixture incubated with agitation for 20 min at room temperature. For BS3 cross-linking, a solution of BS3 in DMSO (150 mM) was used, which was diluted with the proteins to a final BS3 concentration of 1 mM. The cross-linking reaction was incubated at room temperature for 30 min with agitation. The reaction was quenched by adding ammonium bicarbonate to a final concentration of 30 mM.

[5] = target: T2, TcPink1; test: Cross-linking coupled with mass spectrometry (CLMS), DMTMM cross-linker; assay type: binding; conditions: DMTMM cross-link CVP198-CVP198 (both partners the peptide), in the CVP-198 + tcPINK1 sample
Experimental: as §5, §6, §7

[6] = target: T1, Tribolium castaneum Pink1 (TcPink1); test: field-effect biosensing (FEB); TcPink1 (500 nM) covalently immobilised by EDC/sulfo-NHS on a graphene biosensor chip (AGILE Dev Kit, Cardea); peptides as analyte in PBS pH 7.4 at varying concentrations; Hill fit for KD; conditions: both partners purified

T3 sequence (P00761 9-231): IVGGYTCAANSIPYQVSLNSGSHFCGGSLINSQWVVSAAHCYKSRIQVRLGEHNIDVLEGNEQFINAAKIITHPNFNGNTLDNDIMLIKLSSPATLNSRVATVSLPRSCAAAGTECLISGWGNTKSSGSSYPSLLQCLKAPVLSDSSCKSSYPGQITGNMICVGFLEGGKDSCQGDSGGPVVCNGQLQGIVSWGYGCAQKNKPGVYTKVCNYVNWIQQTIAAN

Molecule	Kd [1] [µM]	metabolised at 0.5 h, 2.5 mg/mL [2] [%]	metabolised at 2 h, 2.5 mg/mL [3] [%]	metabolised at 2 h, 2.5 mg/mL ([2]; 120 min, read-out: Degradation of the peptide by trypsin after 120 min) [%]	XL fragmentation score [4]	XL fragmentation score [5]	Kd [6] [µM]
CSCC[C@@H]1NC(=O)[C@H](CCCNC(=N)N)NC(=O)[C@H](CCC(N)=O)NC(=O)[C@H](CC(C)C)NC(=O)CNC(=O)CCC(=O)NCCCC[C@@H](C(=O)NCC(=O)NCC(=O)N[C@@H](Cc2ccc(O)cc2)C(=O)NCC(=O)N[C@@H](CCCNC(=N)N)C(=O)N[C@@H](CCCCN)C(=O)N[C@@H](CCCCN)C(=O)N[C@@H](CCCNC(=N)N)C(=O)N[C@@H](CCCNC(=N)N)C(=O)N[C@@H](CCC(N)=O)C(=O)N[C@@H](CCCNC(=N)N)C(=O)N[C@@H](CCCNC(=N)N)C(=O)N[C@@H](CCCNC(=N)N)C(N)=O)NC(=O)[C@H](CC(C)C)NC(=O)[C@H](CC(=O)O)NC(=O)[C@H](C(C)C)NC(=O)[C@H](CC(C)C)NC(=O)[C@H](C(C)C)NC1=O [CVP-199] (GLQRMVLVDLKGGYGRKKRRQRRR-NH2; linker N-11 via Suc)	58.31 ± 0.02	45	< 75	–	–	–	–
Ac-GLQRMVLVDLKGGYGRKKRRQRRR-NH2 [CVP-198]	130.47 ± 0.01	~70	–	~95	1	0.74	–
GLQRMVLVDLKGGYGRKKRRQRRR-NH2 (also: backbone cyclic: spacer on N-terminal amine linked to side chain of added lysine, that lysine's position not given here, linker at N via dicarboxylic acid spacer (n = 3), other end not in the chain) [CVP-200, backbone cyclic peptide (n = 3, bridge size 10, ring size 42)]	–	–	–	–	–	–	139
